Assay results as given in paper PMC11130353, “Using host-mimicking conditions and a murine cutaneous abscess model to identify synergistic antibiotic combinations effective against Pseudomonas aeruginosa” (Frontiers in Cellular and Infection Microbiology, 2024).
In brackets after ≈: the same amount, converted by molar mass. Like-named read-outs stand apart in the source and are kept apart here.

What was measured:
P. aeruginosa LESB58 [1] = test: microbe, parasite or virus in culture; type: cell-based, Pseudomonas aeruginosa; conditions: for Fold change TCM vs MHB (MIC): MIC in TCM vs MIC in MHB; for MIC: Pseudomonas aeruginosa
Experimental: (§1) For susceptibility testing under standard conditions, bacteria were cultured in Muller Hinton Broth MHB (Fort Richards Laboratories). […] Further susceptibility testing was also conducted in MHB supplemented with FBS (5% v/v) and DMEM supplemented with glucose (1% w/v) and MHB (10% v/v).
The minimum inhibitory concentration (MIC) of each antibiotic was determined using the broth microdilution method in 96-well plates. […] Briefly, antibiotics were two-fold serially diluted in MHB or TCM prior to adding 1 × 10^6 CFU mL^-1 bacteria. […] The MIC was recorded as the lowest antibiotic concentration with no visible growth and the median value of at least three biological replicates reported.

[2] = for Highest tolerated dose tested: 50 μL injected subcutaneously, skin inspected next day; for Toxic (visible skin irritation, inflammation, blood vessels, swelling): female, Swiss Webster, mouse, in vivo, sc, 1 day
Experimental: Mice used in this study were female Swiss Webster aged approximately 6-7 weeks and sourced from the University of Otago Biomedical Research Facility. […] Briefly, the fur on the back of each mouse was removed by shaving and chemical depilation. Antibiotics were tested for skin toxicity by injecting 50 μL of antibiotic suspension subcutaneously into naïve mice, and subsequent inspection of the skin for inflammation on the next day. P. aeruginosa LESB58 was grown to mid-log phase in dYT broth, washed twice in sterile PBS (Gibco, pH 7.4), and resuspended in PBS to ~1 x 10^8 CFU per 50 μL inoculum. The bacterial suspension (50 μL) was injected subcutaneously into the right side of the dorsum, followed one hour later by 50 μL of antibiotic treatment injected directly into the infected area. […] Combination treatments were administered as a single 50 μL injection containing both antibiotics. The concentration of each antibiotic in the combination was the same as when it was used alone. Progression of the infection was monitored daily, and abscess dimensions were measured on day three using a calliper. On day three, abscess tissue and pus were excised, homogenized in sterile PBS using SPEX SamplePrep 1600 MiniG for five minutes and bacterial CFU counts determined by serial dilution.

P. aeruginosa LESB58 [3] = test: In vitro synergy, checkerboard assay; type: cell-based, Pseudomonas aeruginosa; conditions: MHB; for FICI, drug combined with CAZ / FICI, drug combined with CZA: FICI <= 0.5 indicates synergy
Experimental: (§2) For susceptibility testing under standard conditions, bacteria were cultured in Muller Hinton Broth MHB (Fort Richards Laboratories). Host mimicking conditions in vitro were simulated using tissue culture medium (TCM) consisting of Dulbecco’s modified Eagle medium (DMEM; Gibco #11965) supplemented with FBS (Moregate Biotech) (5% v/v) and glucose (1% w/v). Further susceptibility testing was also conducted in MHB supplemented with FBS (5% v/v) and DMEM supplemented with glucose (1% w/v) and MHB (10% v/v).
(§3) The P. aeruginosa LESB58.lux strain was used for in vitro synergy experiments with azithromycin in MHB and all antibiotic combinations in TCM to determine bacterial growth (as visual inspection and absorbance measurements were unreliable). Synergy was determined using the checkerboard method ([Berenbaum, 1978]; [Pletzer and Hancock, 2018]) in at least triplicate. Each antibiotic was two-fold serially diluted in sterile water before transferring to a 96-well plate containing 1 × 10^6 CFU mL^-1 bacteria in MHB or TCM. Plates were incubated at 37°C for 22-24 hours. The MIC alone or in combination was recorded as the lowest antibiotic concentration with no visible growth. For experiments using the LESB58.lux strain no visible growth was defined as an at least 95% reduction compared to the no antibiotic growth control in luminescence detected using a ClarioStar plate reader. The fractional inhibitory concentration index (FICI) was calculated as [(MICA in combination)/MICA] + [(MICB in combination)/MICB]. FICI values of 0.5 or below indicated synergy, while values above 0.5 up to and including 1 were taken to indicate additivity. FICI values above 1 indicate indifference or antagonism ([Odds, 2003]).

P. aeruginosa LESB58 [4] = test: Murine high density subcutaneous skin abscess model; type: in vivo, Pseudomonas aeruginosa; conditions: for Area of dermoncecrosis, Mean: female Swiss Webster mice; for Area of dermoncecrosis, Mean / Area of dermoncecrosis, % reduction / CFU per abscess, Fold change / CFU per abscess, Geometric mean: day 3; for Area of dermoncecrosis, % reduction / CFU per abscess, Fold change: compared to the vehicle control
Experimental: Mice used in this study were female Swiss Webster aged approximately 6-7 weeks and sourced from the University of Otago Biomedical Research Facility. […] The subcutaneous abscess infection model was performed as previously described ([Pletzer et al., 2017]) with a higher inoculum. Briefly, the fur on the back of each mouse was removed by shaving and chemical depilation. Antibiotics were tested for skin toxicity by injecting 50 μL of antibiotic suspension subcutaneously into naïve mice, and subsequent inspection of the skin for inflammation on the next day. P. aeruginosa LESB58 was grown to mid-log phase in dYT broth, washed twice in sterile PBS (Gibco, pH 7.4), and resuspended in PBS to ~1 x 10^8 CFU per 50 μL inoculum. The bacterial suspension (50 μL) was injected subcutaneously into the right side of the dorsum, followed one hour later by 50 μL of antibiotic treatment injected directly into the infected area. […] Combination treatments were administered as a single 50 μL injection containing both antibiotics. The concentration of each antibiotic in the combination was the same as when it was used alone. Progression of the infection was monitored daily, and abscess dimensions were measured on day three using a calliper. On day three, abscess tissue and pus were excised, homogenized in sterile PBS using SPEX SamplePrep 1600 MiniG for five minutes and bacterial CFU counts determined by serial dilution. In this model, synergy was defined as being a significant difference between the combination treated group and the amalgamated group of single drug treated animals ([Fantin and Carbon, 1992]; [Pletzer et al., 2018]).
Statistical analysis was performed using GraphPad Prism 9.5.1. Bacterial CFU and abscess size data from in vivo experiments was analysed by Kruskal-Wallace test with Dunn’s correction for multiple comparisons. The data was considered significant when p-values were below 0.05 or 0.01 as indicated.

P. aeruginosa PAO1 = test: Minimum inhibitory concentration, broth microdilution; type: cell-based, Pseudomonas aeruginosa; conditions: for Fold change TCM vs MHB (MIC): MIC in TCM vs MIC in MHB; for MIC: Pseudomonas aeruginosa, PAO1
Experimental: as §1
The minimum inhibitory concentration (MIC) of each antibiotic was determined using the broth microdilution method in 96-well plates. […] Briefly, antibiotics were two-fold serially diluted in MHB or TCM prior to adding 1 × 10^6 CFU mL^-1 bacteria. Plates were incubated at 37°C for 22-24 hours. The MIC was recorded as the lowest antibiotic concentration with no visible growth and the median value of at least three biological replicates reported.

P. aeruginosa LESB58-lux = test: In vitro synergy, checkerboard assay (luminescence readout); type: cell-based, Pseudomonas aeruginosa; conditions: LESB58-lux; for FICI, drug combined with CAZ / FICI, drug combined with CZA: FICI <= 0.5 indicates synergy
Experimental: as §2, §3

[5] = LESB58, read-out: MIC in MHB, MHB, 20-24 h
[6] = LESB58, read-out: MIC in TCM, TCM (DMEM + 1% glucose + 5% FBS), 20-24 h
[7] = Colistin, tigecycline and tobramycin groups
[8] = Azithromycin group, CAZ or CZA 50 mg/mL, AZM 6.25 mg/mL

Structure (SMILES): CN(C)c1cc(NC(=O)CNC(C)(C)C)c(O)c2c1C[C@H]1C[C@H]3[C@H](N(C)C)C(O)=C(C(N)=O)C(=O)[C@@]3(O)C(O)=C1C2=O [TGC, tigecycline]
- Fold change TCM vs MHB (MIC) (P. aeruginosa LESB58 [1]): >80
- MIC (P. aeruginosa LESB58 [1]; [5]): 6.25 µg/mL (≈ 10.7 µM)
- MIC (P. aeruginosa LESB58 [1]; [6]): > 500 µg/mL
- MIC in TCM (P. aeruginosa LESB58 [1]; TCM (DMEM + 1% glucose + 5% FBS), 20-24 h): entirely lost its efficacy
- Highest tolerated dose tested [2]: 12 mg/mL
- Toxic (visible skin irritation, inflammation, blood vessels, swelling) [2]: 25 mg/mL
- Fold decrease in CAZ MIC, drug combined with CAZ (P. aeruginosa LESB58 [3]): 4
- Fold decrease in CZA MIC, drug combined with CZA (P. aeruginosa LESB58 [3]): 8
- Fold decrease in other MIC, drug combined with CAZ (P. aeruginosa LESB58 [3]): 8
- Fold decrease in other MIC, drug combined with CZA (P. aeruginosa LESB58 [3]): 8
- FICI, drug combined with CAZ (P. aeruginosa LESB58 [3]): 0.38
- FICI, drug combined with CZA (P. aeruginosa LESB58 [3]): 0.25
- FICI, drug combined with CAZ (P. aeruginosa LESB58 [3]; listed as tigecycline): < 0.4
- FICI, drug combined with CZA (P. aeruginosa LESB58 [3]; listed as tigecycline): < 0.4
- Area of dermoncecrosis, Mean (P. aeruginosa LESB58 [4]; Colistin, tigecycline and tobramycin groups (shared vehicle, CAZ and CZA mice), 50 μL s.c. 1 h after infection, CAZ or CZA 50, CST 1.25, TGC 2.5, TOB 2 mg/mL, vehicle 0.9% saline): 86.7 mm^2
- Area of dermoncecrosis, % reduction (P. aeruginosa LESB58 [4]; [7]): 7.7%
- CFU per abscess, Fold change (P. aeruginosa LESB58 [4]; [7]): -2.4
- CFU per abscess, Geometric mean (P. aeruginosa LESB58 [4]; [7]): 1.0 × 10^8 CFU per abscess
- Fold change TCM vs MHB (MIC) (P. aeruginosa PAO1): >40
- MIC (P. aeruginosa PAO1; read-out: MIC in MHB): 12.5 µg/mL (≈ 21.3 µM)
- MIC (P. aeruginosa PAO1; read-out: MIC in TCM): > 500 µg/mL

Structure (SMILES): CC[C@H]1OC(=O)[C@H](C)[C@@H](O[C@H]2C[C@@](C)(OC)[C@@H](O)[C@H](C)O2)[C@H](C)[C@@H](O[C@@H]2O[C@H](C)C[C@H](N(C)C)[C@H]2O)[C@](C)(O)C[C@@H](C)CN(C)[C@H](C)[C@@H](O)[C@]1(C)O [AZM, azithromycin]
- Fold change TCM vs MHB (MIC) (P. aeruginosa LESB58 [1]): -100
- MIC (P. aeruginosa LESB58 [1]; [5]): 62.5 µg/mL (≈ 83.4 µM)
- MIC (P. aeruginosa LESB58 [1]; [6]): 0.625 µg/mL
- Fold increase of efficacy in TCM compared to MHB (P. aeruginosa LESB58 [1]; host mimicking TCM vs MHB): 100
- Fold decrease in CAZ MIC, drug combined with CAZ (P. aeruginosa LESB58-lux; MHB): 4
- Fold decrease in CZA MIC, drug combined with CZA (P. aeruginosa LESB58-lux; MHB): 4
- Fold decrease in other MIC, drug combined with CAZ (P. aeruginosa LESB58-lux; MHB): 4
- Fold decrease in other MIC, drug combined with CZA (P. aeruginosa LESB58-lux; MHB): 2
- FICI, drug combined with CAZ (P. aeruginosa LESB58-lux; MHB): 0.5
- FICI, drug combined with CZA (P. aeruginosa LESB58-lux; MHB): 0.75
- FICI, drug combined with CZA (P. aeruginosa LESB58-lux; MHB, listed as azithromycin): did not act synergistically
- Fold decrease in CAZ MIC, drug combined with CAZ (P. aeruginosa LESB58-lux; TCM): 8
- Fold decrease in CZA MIC, drug combined with CZA (P. aeruginosa LESB58-lux; TCM): 2
- Fold decrease in other MIC, drug combined with CAZ (P. aeruginosa LESB58-lux; TCM): 2
- Fold decrease in other MIC, drug combined with CZA (P. aeruginosa LESB58-lux; TCM): 2
- FICI, drug combined with CAZ (P. aeruginosa LESB58-lux; TCM): 0.625
- FICI, drug combined with CZA (P. aeruginosa LESB58-lux; TCM): 1
- Highest tolerated dose tested [2]: 25 mg/mL
- Toxic (visible skin irritation, inflammation, blood vessels, swelling) [2]: 50 mg/mL
- Fold reduction of bacterial load (CFU) relative to vehicle (P. aeruginosa LESB58 [4]; Azithromycin experiments): ~ 42
- CFU per abscess, Fold change (P. aeruginosa LESB58 [4]; Azithromycin group): -42.1
- Area of dermoncecrosis, % reduction (P. aeruginosa LESB58 [4]; [8]): 36.4%
- Area of dermoncecrosis, % reduction (P. aeruginosa LESB58 [4]; Azithromycin group, CAZ or CZA 50 mg/mL, AZM 6.25 mg/mL, listed as azithromycin): 36%
- CFU per abscess, Geometric mean (P. aeruginosa LESB58 [4]; [8]): 8.5 × 10^6 CFU per abscess
- Area of dermoncecrosis, Mean (P. aeruginosa LESB58 [4]; Azithromycin group, 50 μL s.c. into infected area 1 h after infection, CAZ or CZA 50 mg/mL, AZM 6.25 mg/mL, vehicle citric acid in saline): 64.5 mm^2
- Fold change TCM vs MHB (MIC) (P. aeruginosa PAO1): >-300
- MIC (P. aeruginosa PAO1; read-out: MIC in MHB): 250 µg/mL (≈ 334 µM)
- MIC (P. aeruginosa PAO1; read-out: MIC in TCM): < 0.78 µg/mL
